Measurements from patent US20200093103A1, “BREEDING WATER FOR ANGUILLIFORMES AND METHOD FOR REARING ANGUILLIFORMES” (SHIN NIPPON BIOMEDICAL LABORATORIES, LTD., priority 2016, published 2020).

Key:
[1] = test system: Anguilla japonica leptocephali; assay: Induction of Anguilla japonica metamorphosis by T4 treatment in 23° C. breeding water; type: in vivo; set-up: key: Y: Metamorphosis completed (seed production completed).; Nd: Dead.; Nf: Food intake unidentified.; Ng: Not metamorphosed into glass eels
Excerpt: (§1) Stage 1: Starting phase of metamorphosis. The rostral end is rounded, and intestinal degeneration starts.
(§2) Stage 2: Peak phase of metamorphosis. Intestinal degeneration becomes pronounced. In the second half, the anus reaches to near the last vertical blood vessel (VBV last).
(§3) Stage 3: Late phase of metamorphosis. The preanal length (PAL) becomes equal to or shorter than the last vertical blood vessel length (VBV last Length) (PAL VBV last Length). The body height is apparently low.
(§4) Stage 4: Pre-glass eel stage. Almost the eel form, but the body height still remains. Melanophores on the body surface or endogenous melanophores are not yet seen.
(§5) Elver stage: Juvenile stage. Food intake can be identified.
(§6) A thyroid hormone (e.g., thyroxine (T4)) is adjusted to 50 to 100 mM in a 1- to 2-mL volume messflask. As a solvent, known solvents (water, alcohol) can be used. Ethanol is preferably used as the solvent.
(§7) For example, using ethanol as a solvent, T4 adjusted to 50 mM is diluted 500-fold, 5,000-fold, and 50,000-fold, respectively, and adjusted to […], 1 μM, and 100 nM. A feed can be prepared in this manner.
(§8) Artificial seawater is added to a breeding vessel, and 1/1000 of the […] T4 is added to prepare […] T4 breeding water.
(§9) Half of the breeding water is replaced every two days with breeding water of the same concentration. In the case where the concentration is changed, for example, in the case of changing from 10 nM to 2 nM, 80% to the breeding water is removed, and unadjusted artificial seawater is newly added to make 1 L.
(§10) Leptocephali visually considered to have reached a total length of 40 mm (or may be 30 mm to 50 mm, may be 35 mm to 45 mm, or may also be 35 mm or more, 40 mm or more, or 45 mm or more) are selected, anesthetized with 2-phenoxyethanol, and then photographed, and the total length of each larva is measured using an image analyzing device.
(§11) The larvae are placed in 10 nM T4 breeding water and then placed in an incubator set at 23° C., and breeding is started. In first one week, observation is performed every two days, and half of the 10 nM T4 breeding water is replaced each time. The average amount of thyroid hormone in the breeding water in stage 1 is 1 nM to 100 nM, for example, and may also be 3 nM to 30 nM, or 5 nM to 20 nM.
(§12) For larvae visually judged to have reached the second half of stage 2, the concentration of the breeding water is changed. The breeding water is diluted 5-fold or 10-fold and adjusted to 2 nM or 1 nM T4, and breeding is continued. The average amount of thyroid hormone in the breeding water in stage 2 may be, as compared with the breeding water of stage 1, diluted 2-fold to 20-fold, diluted 3 to 15-fold, or diluted 5 to 10-fold as described above. The average amount of thyroid hormone in the breeding water in stage 2 is 0.1 nM to 20 nM, for example, and may also be 0.5 nM to 10 nM, 1 nM to 5 nM, or 1 nM to 2 nM.
For larvae visually judged to have reached stage 3, the breeding water is quickly changed 0.2 nM T4 breeding water, which is a 5-fold dilution of 1 nM T4 breeding water, and further changed to 0.1 nM T4 breeding water on the following day. […] Also, in larvae whose anus position has not reached the last vertical hemal spine, when they are judged to be on the brink of stage 3, the concentration is changed as above. The average amount of thyroid hormone in the breeding water in stage 3 may be, as compared with the breeding water of stage 2, diluted 2-fold to 50-fold, diluted 3 to 15-fold, diluted 4 to 6-fold, or diluted 5-fold as described above. The average amount of thyroid hormone in the breeding water in stage 3 is 0.01 nM to 2 nM, for example, and may also be 0.05 nM to 1 nM, 0.1 nM to 0.5 nM, or 0.1 nM to 0.2 nM. […] That is, the concentration may be changed such that the thyroid hormone becomes undetectable in the breeding water in the course of stage 3.
In stage 3, breeding is continuously performed in the 0.1 nM T4 breeding water. […]

[2] = test system: Anguilla japonica leptocephali; assay: as above; type: in vivo; set-up: key: Y: Metamorp completed (seed production completed).; Nd: Dead
Excerpt: as §1, §2, §3, §4, §5, §6, §7, §8, §9, §10, §11, §12
For larvae visually judged to have reached stage 3, the breeding water is quickly changed 0.2 nM T4 breeding water, which is a 5-fold dilution of 1 nM T4 breeding water, and further changed to 0.1 nM T4 breeding water on the following day. […] Also, in larvae whose anus position has not reached the last vertical hemal spine, when they are judged to be on the brink of stage 3, the concentration is changed as above. […]

Measured: Elver

N[C@@H](Cc1cc(I)c(Oc2cc(I)c(O)c(I)c2)c(I)c1)C(=O)O [T4, thyroxine]
Nf: [1]; individual Exp 6-6, 129 days old, total length 34.6 mm at start of T4 treatment
Y: [1]; individual Exp 6-2, 129 days old, total length 38.1 mm at start of T4 treatment | [1]; individual Exp 6-3, 129 days old, total length 37.4 mm at start of T4 treatment | [1]; individual Exp 6-4, 129 days old, total length 36.6 mm at start of T4 treatment | [1]; individual Exp. 6-1, 129 days old, total length 40.6 mm at start of T4 treatment | [2]; individual Exp 5-4, 175 days old, total length 43.5 mm at start of T4 treatment | [2]; individual Exp 5-5, 174 days old, total length 36.1 mm at start of T4 treatment | [2]; individual Exp. 5-1, 175 days old, total length 38.5 mm at start of T4 treatment | [2]; individual Exp. 5-2, 175 days old, total length 41.3 mm at start of T4 treatment | [2]; individual Exp. 5-3, 175 days old, total length 41.7 mm at start of T4 treatment
Ng: [1]; individual Exp 6-5, 129 days old, total length 36.4 mm at start of T4 treatment
